Target: Aquaporin-4 (Homo sapiens) (UniProt P55087)
Conditions: FRT
Description: Inhibition of AQP4 expressed in rat FRT cells assessed as osmotic water permeability at 100 uM after 15 mins by stopped-flow light scattering method

Sequence of Aquaporin-4 (Homo sapiens) (P55087 whole entry): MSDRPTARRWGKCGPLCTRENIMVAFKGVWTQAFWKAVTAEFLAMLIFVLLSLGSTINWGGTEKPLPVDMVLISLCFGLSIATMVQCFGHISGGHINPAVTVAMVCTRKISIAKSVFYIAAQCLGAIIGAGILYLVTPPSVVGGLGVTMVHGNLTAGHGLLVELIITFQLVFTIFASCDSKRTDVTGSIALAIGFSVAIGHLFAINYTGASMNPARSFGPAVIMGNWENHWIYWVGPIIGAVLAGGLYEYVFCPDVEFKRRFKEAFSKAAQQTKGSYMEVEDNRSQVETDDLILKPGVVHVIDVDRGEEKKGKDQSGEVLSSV

Structure (SMILES) | permeability [×10⁻⁶ cm/s]
CCOc1ccc2nc(S(N)(=O)=O)sc2c1 | 12900
NS(=O)(=O)Cc1noc2ccccc12 | 12900
CC1(C)O[C@@H]2[C@@H](CO[C@@]3(COS(N)(=O)=O)OC(C)(C)O[C@@H]23)O1 | 12900
CC(=O)Nc1ccc(S(N)(=O)=O)cc1 | 12900
O=C1NC(=O)C(c2ccccc2)(c2ccccc2)N1 | 12900
CC(=O)Nc1nnc(S(N)(=O)=O)s1 | 12900
CNS(=O)(=O)Cc1ccc2[nH]cc(CCN(C)C)c2c1 | 12900
